Laboratory results as given in US12304912B2, “Fused bicyclic RAF inhibitors and methods for use thereof” (Jazz Pharmaceuticals Ireland Limited, priority 2020, dated 2025).

Legend:
[1] = tested on: BRAF monomers in A375 cells; assay: A375 AlphaLISA SureFire pERK1/2 cellular assay (monomer); format: cell-based; details: Homo sapiens, A-375; A375 cells, 1 hr; read-out: pERK A375 (1 hr) pIC50 (converted)
Outline: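 BRAF^V600E A375 melanoma cells seeded at 30,000/well in DMEM with 10% FBS, dosed without medium exchange in a 10-point series from 10 μM at 1/2-log steps, 1 h at 37 °C. Phospho-ERK1/2 (Thr202/Tyr204) measured in lysates by AlphaLISA SureFire; absolute IC50 relative to DMSO control.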

[2] = Plasma protein binding assay, human plasma (hPPB); format: in vitro ADME; details: 5 μM, equilibrium dialysis 4 hours 37° C.
Outline: (§1)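 Equilibrium dialysis of 5 μM compound in previously frozen human or mouse plasma against phosphate buffer, 4 h at 37 °C. Both chambers quantified by LC-MS/MS; % free = (1−((PC−PF)/PC))×100.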

[3] = tested on: RAF dimers in HCT-116 cells; assay: HCT-116 AlphaLISA SureFire pERK1/2 cellular assay (dimer); format: cell-based; details: Homo sapiens, HCT-116; HCT116 cells pre-dosed with 1 μM Encorafenib, 1 hr; read-out: pERK HCT116 dimer (1 hr) pIC50 (converted)
Outline: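 HCT-116 (KRAS G13D) cells, 30,000/well, pretreated 1 h with 1 μM Encorafenib to induce RAF dimers, washed, then dosed 1 h at 37° C with compound (10-point, top 10 μM, 1/2 log steps) in growth medium. pERK1/2 (T202/Y204) measured by AlphaLISA SureFire; absolute IC50 versus DMSO control.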

[4] = Microsomal stability assay, human liver microsomes (HLM); format: in vitro ADME; details: 0.5 mg/mL protein, 1 μM substrate
Outline: (§2)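 Substrate depletion: 1 μM compound incubated at 37° C. with cryopreserved mouse or human liver microsomes at 0.5 mg·mL^−1 protein. Timed aliquots quenched in ice-cold organic solvent and measured by LC-MS/MS; t1/2 and CLint derived from the slope of ln % remaining versus time.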

[5] = Plasma protein binding assay, mouse plasma (mPPB); format: in vitro ADME; details: 5 μM, equilibrium dialysis 4 hours 37° C.
Outline: as §1

[6] = Solubility (Sol), medium not stated; format: physicochemical; details: cells not marked (FESSIF)
[7] = Microsomal stability assay, mouse liver microsomes (MLM); format: in vitro ADME; details: 0.5 mg/mL protein, 1 μM substrate
Outline: as §2

Row | SMILES | IC50 [1] | hPPB (% free) [2] | IC50 [3] | microsomal CLint at 1 μM [4] | mPPB (% free) [5] | Sol [6] | microsomal CLint at 1 μM [7]
1 | Cc1cccc(-c2c[nH]c(C3COc4ccc(Oc5ccnc6c5CCC(=O)N6)cc4C3)n2)c1 (stereo not drawn) [Compound 14, 5-[3-[4-(m-tolyl)-1H-imidazol-2-yl]chroman-6-yl]oxy-3,4-dihydro-1H-1,8-naphthyridin-2-one] | 18.2 nM | 0.1 % free | 75.9 nM | 60.7 µL/min/mg | 0.5 % free | <1.1 mg/L | 51.3 µL/min/mg
2 | COc1cccc(-c2c[nH]c(C3COc4ccc(Oc5ccnc6c5CCC(=O)N6)cc4C3)n2)c1 (stereo not drawn) [Compound 13, 5-[3-[4-(3-methoxyphenyl)-1H-imidazol-2-yl]chroman-6-yl]oxy-3,4-dihydro-1H-1,8-naphthyridin-2-one] | 35.5 nM | 0.7 % free | 123 nM | 77.1 µL/min/mg | 1.2 % free | <1.2 mg/L | 114 µL/min/mg
3 | O=C1CCc2c(Oc3ccc4c(c3)CN(C(=O)Nc3ccccc3C(F)(F)F)CC4)ccnc2N1 [Compound 49] | 7760 nM | 1.9 % free | 8910 nM | 82.2 µL/min/mg | 2.5 % free | <1.2 mg/L | 83.6 µL/min/mg
